Source: US10874743B2, “IRAK degraders and uses thereof” (Kymera Therapeutics, Inc., priority 2017, dated 2020)
Where “and” joins values, the source holds several entries; their conditions need not be identical. Equal entries are not always repeated. Where two headings read alike, the source gives them in different places.

Assay: Pharmacokinetics in CD-1 mice (plasma concentrations, PK parameters)
Type: in vivo
Conditions: for AUC(0-t): read-out: AUC0-last; for MRT inf: read-out: MRT0-inf; for MRT last: read-out: MRT0-last; for Vd: read-out: Vdss
Experimental: Pharmacokinetics for I-127, I-172 and I-210 were determined in Sprague Dawley rats or CD-1 mice by dosing intravenous (IV), subcutaneous (SC) or per oral (PO) using facility SOPs and sampling plasma at required time points. Species, formulation, route of administration and time points samples are listed below for each compound.
Compounds were extracted from plasma, injected on reverse phase HPLC, eluted with a gradient from 5% to 95% acetonitrile in water and quantified by mass spectrometry with internal standard. Data are expressed in ng compound per mL of plasma.

[1] = CD-1, mouse, plasma, iv, 2 mg/kg, mouse (CD1) iv 2 mg/kg, Mean IV
[2] = CD-1, mouse, plasma, sc, 30 mg/kg, mouse (CD1) sc 30 mg/kg, Mean SC
[3] = CD-1, mouse, plasma, sc, 30 mg/kg, mouse (CD1) sc 30 mg/kg, individual M07-M09
[4] = mouse (CD1) iv 2 mg/kg, Mean IV
[5] = mouse (CD1) iv 2 mg/kg, individual M01-M03, 2 mg/kg
[6] = mouse (CD1) sc 30 mg/kg, individual M07-M09
[7] = mouse (CD1) sc 30 mg/kg, individual M07-M09, 30 mg/kg

NC(=O)c1nn(-c2ccc(C(=O)NCCOCCOCCNc3cccc4c3C(=O)N(C3CCC(=O)NC3=O)C4=O)cc2)cc1NC(=O)c1coc(-c2ccnc(NCC(F)(F)F)c2)n1 (stereo not shown) [I-127, N-[3-carbamoyl-1-[4-[2-[2-[2-[[2-(2,6-dioxo-3-piperidyl)-1,3-dioxo-isoindolin-4-yl]amino]ethoxy]ethoxy]ethylcarbamoyl]phenyl]pyrazol-4-yl]-2-[2-(2,2,2-trifluoroethylamino)-4-pyridyl]oxazole-4-carboxamide]
concentration at 5 min (CD-1, mouse, plasma, iv, 2 mg/kg, mouse (CD1) iv 2 mg/kg, 5 min, Mean IV, read-out: concentrations): 1290 ng/mL
concentration at 0.5 h (CD-1, mouse, plasma, iv, 2 mg/kg, mouse (CD1) iv 2 mg/kg, 0.500 h, Mean IV, read-out: concentrations): 102 ng/mL
concentration at 1 h (CD-1, mouse, plasma, iv, 2 mg/kg, mouse (CD1) iv 2 mg/kg, 1.00 h, Mean IV, read-out: concentrations): 49.7 ng/mL
concentration at 2 h (CD-1, mouse, plasma, iv, 2 mg/kg, mouse (CD1) iv 2 mg/kg, 2.00 h, Mean IV, read-out: concentrations): 31.7 ng/mL
concentration at 4 h (CD-1, mouse, plasma, iv, 2 mg/kg, mouse (CD1) iv 2 mg/kg, 4.00 h, Mean IV, read-out: concentrations): 12.2 ng/mL
concentration at 6 h (CD-1, mouse, plasma, iv, 2 mg/kg, mouse (CD1) iv 2 mg/kg, 6.00 h, Mean IV, read-out: concentrations): 5.31 ng/mL
concentration at 24 h (CD-1, mouse, plasma, iv, 2 mg/kg, mouse (CD1) iv 2 mg/kg, 24.0 h, individual M01-M03, read-out: concentrations): 2.2 ng/mL
clearance [1]: 84.9 mL/min/kg
half-life [1]: 3.65 h
AUC(0-inf) (CD-1, mouse, plasma, iv, 2 mg/kg, mouse (CD1) iv 2 mg/kg, Mean IV, read-out: AUC0-inf): 511 ng·h/mL
AUC(0-t) [1]: 496 ng·h/mL
C0 (CD-1, mouse, plasma, iv, 2 mg/kg, mouse (CD1) iv 2 mg/kg, Mean IV, read-out: C0): 2160 ng/mL
MRT inf [1]: 1.54 h
MRT last [1]: 1.1 h
Vd [1]: 6.25 L/kg
Vd (CD-1, mouse, plasma, iv, 2 mg/kg, mouse (CD1) iv 2 mg/kg, individual M01-M03): 5.73 L/kg
AUC(0-t) [2]: 39.8 ng·h/mL
Cmax (CD-1, mouse, plasma, sc, 30 mg/kg, mouse (CD1) sc 30 mg/kg, Mean SC, read-out: Cmax): 2.91 ng/mL
MRT last [2]: 11.3 h
Tmax (CD-1, mouse, plasma, sc, 30 mg/kg, mouse (CD1) sc 30 mg/kg, Mean SC, read-out: Tmax): 2.67 h
half-life [3]: 39.2 h
AUC(0-inf) (CD-1, mouse, plasma, sc, 30 mg/kg, mouse (CD1) sc 30 mg/kg, individual M07-M09, read-out: AUC0-inf): 144 ng·h/mL
AUC(0-t) [3]: 33 ng·h/mL
MRT inf [3]: 54.2 h
MRT last [3]: 11.7 h
Tmax (CD-1, mouse, plasma, sc, 30 mg/kg, mouse (CD1) sc 30 mg/kg, individual M07-M09, read-out: Tmax): 2 h
bioavailability (CD-1, plasma, mouse (CD1) sc 30 mg/kg, Mean SC): 0.534%
concentrations (mouse (CD1) iv 2 mg/kg, 5 min, individual M01-M03, 2 mg/kg): 2310 ng/mL and 831 ng/mL and 738 ng/mL
concentrations (mouse (CD1) iv 2 mg/kg, 0.500 h, individual M01-M03, 2 mg/kg): 166 ng/mL and 58.7 ng/mL and 82.1 ng/mL
concentrations (mouse (CD1) iv 2 mg/kg, 1.00 h, individual M01-M03, 2 mg/kg): 91 ng/mL and 22.3 ng/mL and 35.8 ng/mL
concentrations (mouse (CD1) iv 2 mg/kg, 2.00 h, individual M01-M03, 2 mg/kg): 51.5 ng/mL and 12.7 ng/mL and 30.9 ng/mL
concentrations (mouse (CD1) iv 2 mg/kg, 4.00 h, individual M01-M03, 2 mg/kg): 18.6 ng/mL and 7.08 ng/mL and 10.9 ng/mL
concentrations (mouse (CD1) iv 2 mg/kg, 6.00 h, individual M01-M03, 2 mg/kg): 8.13 ng/mL and 3.38 ng/mL and 4.42 ng/mL
concentrations (mouse (CD1) iv 2 mg/kg, 24.0 h, individual M01-M03, 2 mg/kg): BQL
AUCExtra [4]: 2.97%
AUMCExtra [4]: 29.9%
AUC0-last [5]: 896 ng·h/mL and 278 ng·h/mL and 316 ng·h/mL
AUC(0-inf) [5]: 919 ng·h/mL and 288 ng·h/mL and 325 ng·h/mL
AUCExtra [5]: 2.57% and 3.55% and 2.80%
AUMCExtra [5]: 33.8% and 34.9% and 20.8%
C0 [5]: 3910 ng/mL and 1412 ng/mL and 1145 ng/mL
Cl [5]: 36.3 mL/min/kg and 116 mL/min/kg and 103 mL/min/kg
MRT0-inf [5]: 2.63 h and 0.916 h and 1.08 h
MRT0-last [5]: 1.79 h and 0.618 h and 0.882 h
T1/2 [5]: 7.43 h and 2.09 h and 1.43 h
Tlast [5]: 24.0 h and 6.00 h (2×)
Vdss [5]: 6.36 L/kg and 6.67 L/kg
concentrations (mouse (CD1) po 30 mg/kg, 0.500 h, individual M04-M06): BQL
concentrations (mouse (CD1) po 30 mg/kg, 1.00 h, individual M04-M06): BQL
concentrations (mouse (CD1) po 30 mg/kg, 2.00 h, individual M04-M06): BQL
concentrations (mouse (CD1) po 30 mg/kg, 4.00 h, individual M04-M06): BQL
concentrations (mouse (CD1) po 30 mg/kg, 6.00 h, individual M04-M06): BQL
concentrations (mouse (CD1) po 30 mg/kg, 24.0 h, individual M04-M06): BQL
concentrations (mouse (CD1) sc 30 mg/kg, 0.500 h, Mean SC): 1.81 ng/mL
concentrations (mouse (CD1) sc 30 mg/kg, 0.500 h, individual M07-M09, 30 mg/kg): 1.29 ng/mL and 2.28 ng/mL and 1.85 ng/mL
concentrations (mouse (CD1) sc 30 mg/kg, 1.00 h, Mean SC): 2 ng/mL
concentrations (mouse (CD1) sc 30 mg/kg, 1.00 h, individual M07-M09, 30 mg/kg): 1.87 ng/mL and 2.51 ng/mL and 1.61 ng/mL
concentrations (mouse (CD1) sc 30 mg/kg, 2.00 h, Mean SC): 2.88 ng/mL
concentrations (mouse (CD1) sc 30 mg/kg, 2.00 h, individual M07-M09, 30 mg/kg): 2.21 ng/mL and 4.61 ng/mL and 1.82 ng/mL
concentrations (mouse (CD1) sc 30 mg/kg, 4.00 h, Mean SC): 1.59 ng/mL
concentrations (mouse (CD1) sc 30 mg/kg, 4.00 h, individual M07-M09, 30 mg/kg): 1.01 ng/mL and 1.86 ng/mL and 1.9 ng/mL
concentrations (mouse (CD1) sc 30 mg/kg, 6.00 h, Mean SC): 1.8 ng/mL
concentrations (mouse (CD1) sc 30 mg/kg, 6.00 h, individual M07-M09, 30 mg/kg): 1.41 ng/mL and 2.82 ng/mL and 1.18 ng/mL
concentrations (mouse (CD1) sc 30 mg/kg, 24.0 h, Mean SC): 1.38 ng/mL
concentrations (mouse (CD1) sc 30 mg/kg, 24.0 h, individual M07-M09, 30 mg/kg): 1.3 ng/mL and 1.58 ng/mL and 1.26 ng/mL
Tlast (mouse (CD1) sc 30 mg/kg, Mean SC): 24.0 h
AUCExtra [6]: 62.1%
AUMCExtra [6]: 92.4%
Tlast [6]: 24.0 h
AUC0-last [7]: 54.5 ng·h/mL and 31.7 ng·h/mL
Cmax [7]: 2.21 ng/mL and 4.61 ng/mL and 1.90 ng/mL
MRT0-last [7]: 10.9 h and 11.4 h
Tmax [7]: 4.00 h
